Reference: ChEMBL document CHEMBL4311997, “Discovery of a potent histone deacetylase (HDAC) 3/6 selective dual inhibitor” (Eur J Med Chem, 2019)
Active and inactive are the calls of the source. The calls are words filed in the database; no cut-off is given here.

What was measured:
[1] = Intrinsic clearance in mouse liver microsomes at 3 uM preincubated for 5 mins followed by NADPH addition and measured up to 45 mins by LC-MS/MS analysis; format: ADME, Microsome; details: read-out: CLH
[2] = molecular target: DNA (cytosine-5)-methyltransferase 1 (Homo sapiens, UniProt P26358); assay: Inhibition of human DNMT1 using Poly(dI-dC) as substrate incubated for 1 hr in presence of [3H]-SAM by filter binding method
Plasmodium falciparum [3] = assay: microbe, parasite or virus in culture; format: functional, organism-based; details: 3D7, 48 h
Description: Antimalarial activity against ring stage Plasmodium falciparum 3D7 incubated for 48 hrs by Hoechst 33342 staining based fluorescence based assay

[4] = molecular target: Polyamine deacetylase HDAC10 (Homo sapiens, UniProt Q969S8); assay: Inhibition of human HDAC10 using Acetyl-Lys (trifluoroacetyl)-AMC) as substrate incubated for 2 hrs by fluorescence assay
MDA-MB-231 [5] = assay: Induction of apoptosis in human MDA-MB-231 cells assessed as necrotic cells at 3 uM incubated for 48 hrs by Annexin V-FITC/PI staining by flow cytometric analysis (reference value: 15%); format: functional
[6] = molecular target: Protein arginine N-methyltransferase 1 (Homo sapiens) (UniProt Q99873); assay: Inhibition of human PRMT1 at 100 uM using histone H4 as substrate incubated for 1 hr in presence of [3H]-SAM by filter binding method relative to control
Homo sapiens [7] = species on record: Homo sapiens; assay: Selectivity ratio of IC50 for human HDAC8 to IC50 for human HDAC6
Histone deacetylase 1 = Histone deacetylase 1 (Homo sapiens, UniProt Q13547)
Description: Inhibition of human HDAC1 using Arg-His-Lys-Lys (Ac) as substrate incubated for 2 hrs by fluorescence assay

MDA-MB-231 [8] = assay: Induction of apoptosis in human MDA-MB-231 cells assessed as early apoptotic cells at 3 uM incubated for 48 hrs by Annexin V-FITC/PI staining by flow cytometric analysis (reference value: 5%); format: functional
[9] = molecular target: T1, Protein deacetylase HDAC6 (Homo sapiens, UniProt Q9UBN7); assay: Inhibition of human HDAC6 using Arg-His-Lys-Lys (Ac) as substrate incubated for 2 hrs by fluorescence assay
T1 sequence (Q9UBN7 whole entry): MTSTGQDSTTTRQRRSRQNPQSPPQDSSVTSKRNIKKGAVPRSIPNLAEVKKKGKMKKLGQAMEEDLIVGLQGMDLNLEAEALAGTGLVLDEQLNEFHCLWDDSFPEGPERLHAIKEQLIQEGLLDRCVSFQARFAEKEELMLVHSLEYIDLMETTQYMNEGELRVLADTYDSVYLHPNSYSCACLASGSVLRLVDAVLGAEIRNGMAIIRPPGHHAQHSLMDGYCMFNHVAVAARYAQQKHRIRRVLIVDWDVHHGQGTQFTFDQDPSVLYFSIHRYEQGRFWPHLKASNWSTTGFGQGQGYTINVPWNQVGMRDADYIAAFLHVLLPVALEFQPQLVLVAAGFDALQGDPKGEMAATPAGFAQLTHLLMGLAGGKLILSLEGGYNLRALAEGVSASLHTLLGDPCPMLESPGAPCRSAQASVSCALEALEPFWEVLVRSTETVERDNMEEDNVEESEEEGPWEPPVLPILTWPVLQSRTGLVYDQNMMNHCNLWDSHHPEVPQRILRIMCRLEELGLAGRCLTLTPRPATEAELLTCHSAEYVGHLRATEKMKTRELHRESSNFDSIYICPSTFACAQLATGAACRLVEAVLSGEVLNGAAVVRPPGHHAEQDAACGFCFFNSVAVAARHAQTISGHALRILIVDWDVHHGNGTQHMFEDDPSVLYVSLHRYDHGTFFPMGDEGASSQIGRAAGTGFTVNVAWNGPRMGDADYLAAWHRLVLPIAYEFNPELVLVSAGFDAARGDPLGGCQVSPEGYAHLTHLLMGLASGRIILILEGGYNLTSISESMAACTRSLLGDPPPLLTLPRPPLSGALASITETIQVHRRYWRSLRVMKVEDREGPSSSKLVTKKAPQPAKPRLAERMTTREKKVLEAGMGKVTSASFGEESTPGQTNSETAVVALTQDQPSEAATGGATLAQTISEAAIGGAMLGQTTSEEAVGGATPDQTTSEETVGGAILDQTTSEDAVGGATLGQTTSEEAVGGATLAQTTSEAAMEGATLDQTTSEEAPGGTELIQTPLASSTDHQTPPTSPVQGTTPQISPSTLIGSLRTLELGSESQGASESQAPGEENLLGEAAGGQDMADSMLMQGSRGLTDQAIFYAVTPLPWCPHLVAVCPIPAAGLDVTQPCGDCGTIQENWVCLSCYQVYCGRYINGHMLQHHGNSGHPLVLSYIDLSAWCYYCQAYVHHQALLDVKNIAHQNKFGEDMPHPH

Homo sapiens [10] = species on record: Homo sapiens; assay: Selectivity ratio of IC50 for human HDAC3 to IC50 for human HDAC6
Plasmodium falciparum [11] = assay: microbe, parasite or virus in culture; format: functional, organism-based; details: K1, 48 h
Description: Antimalarial activity against ring stage Plasmodium falciparum K1 incubated for 48 hrs by Hoechst 33342 staining based fluorescence based assay

MDA-MB-231 [12] = assay: Induction of apoptosis in human MDA-MB-231 cells assessed as late apoptotic cells at 9 uM incubated for 48 hrs by Annexin V-FITC/PI staining by flow cytometric analysis (reference value: 3%); format: functional
[13] = Intrinsic clearance in female rat liver microsomes at 3 uM preincubated for 5 mins followed by NADPH addition and measured up to 45 mins by LC-MS/MS analysis; format: ADME, Microsome
[14] = molecular target: Histone deacetylase 1/2/3 (Homo sapiens, UniProt Q13547+O15379+Q92769); assay: Inhibition of HDAC1/2/3 in human KMS-12-BM cells assessed as increase in Ac-H3 level incubated for 24 hrs by Western blot analysis; format: cell-based
[15] = molecular target: Histone-lysine N-methyltransferase SETD7 (Homo sapiens) (UniProt Q8WTS6); assay: Inhibition of human SET7/9 at 100 uM using core histone as substrate incubated for 1 hr in presence of [3H]-SAM by filter binding method relative to control
Homo sapiens [16] = species on record: Homo sapiens; assay: Selectivity ratio of IC50 for human HDAC9 to IC50 for human HDAC6
[17] = molecular target: Histone-lysine N-methyltransferase SUV39H1 (Homo sapiens) (UniProt O43463); assay: Inhibition of human SUV39H1 at 100 uM using histone H3 as substrate incubated for 1 hr in presence of [3H]-SAM by filter binding method relative to control
MDA-MB-231 [18] = assay: Induction of apoptosis in human MDA-MB-231 cells assessed as late apoptotic cells at 6 uM incubated for 48 hrs by Annexin V-FITC/PI staining by flow cytometric analysis (reference value: 3%); format: functional
[19] = Genotoxicity in Salmonella typhimurium TA100 in presence of S9 fraction incubated for 48 hrs by Ames test relative to control; format: toxicity, subcellular; details: salmonella enterica subsp. enterica serovar typhimurium, s9, 48 h
[20] = Cytotoxicity against human AC10 cells incubated for 24 hrs by CellTiter-Glo Cell Viability Assay; format: cell-based; details: AC10, 24 h
[21] = Therapeutic Index, ratio of EC50 for mouse TAMH cells to EC50 for human MDA-MB-231 cells; format: toxicity; details: TAMH cells versus MDA-MB-231 cells, read-out: Ratio EC50
[22] = Half life in male rat liver microsomes at 3 uM preincubated for 5 mins followed by NADPH addition and measured up to 45 mins by LC-MS/MS analysis; format: ADME, Microsome

Chain of Histone deacetylase 1 (Q13547 whole entry): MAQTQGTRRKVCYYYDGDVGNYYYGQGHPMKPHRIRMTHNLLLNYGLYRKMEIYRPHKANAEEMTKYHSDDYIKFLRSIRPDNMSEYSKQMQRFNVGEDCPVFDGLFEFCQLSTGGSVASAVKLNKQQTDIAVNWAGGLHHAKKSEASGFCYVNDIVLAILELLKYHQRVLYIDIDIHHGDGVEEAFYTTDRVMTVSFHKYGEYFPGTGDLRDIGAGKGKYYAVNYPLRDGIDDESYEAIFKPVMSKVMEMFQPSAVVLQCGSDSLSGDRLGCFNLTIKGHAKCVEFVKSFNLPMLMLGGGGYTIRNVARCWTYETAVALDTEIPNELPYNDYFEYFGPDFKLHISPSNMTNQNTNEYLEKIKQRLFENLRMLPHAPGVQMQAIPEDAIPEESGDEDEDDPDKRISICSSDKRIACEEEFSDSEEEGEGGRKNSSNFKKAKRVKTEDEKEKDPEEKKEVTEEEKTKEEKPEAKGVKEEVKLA
Chain of Histone-lysine N-methyltransferase SETD7 (Homo sapiens) (Q8WTS6 whole entry): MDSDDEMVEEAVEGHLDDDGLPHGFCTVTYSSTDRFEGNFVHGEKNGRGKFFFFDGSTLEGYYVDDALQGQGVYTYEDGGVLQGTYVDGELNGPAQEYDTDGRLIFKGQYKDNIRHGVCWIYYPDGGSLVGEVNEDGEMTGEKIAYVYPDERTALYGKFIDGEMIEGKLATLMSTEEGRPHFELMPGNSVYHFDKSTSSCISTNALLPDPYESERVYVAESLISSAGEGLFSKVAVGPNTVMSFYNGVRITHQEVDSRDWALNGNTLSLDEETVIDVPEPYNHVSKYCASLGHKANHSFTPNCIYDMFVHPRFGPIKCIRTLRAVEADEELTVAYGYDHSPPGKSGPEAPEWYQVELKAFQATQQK
Chain of Protein arginine N-methyltransferase 1 (Homo sapiens) (Q99873 whole entry, looked up): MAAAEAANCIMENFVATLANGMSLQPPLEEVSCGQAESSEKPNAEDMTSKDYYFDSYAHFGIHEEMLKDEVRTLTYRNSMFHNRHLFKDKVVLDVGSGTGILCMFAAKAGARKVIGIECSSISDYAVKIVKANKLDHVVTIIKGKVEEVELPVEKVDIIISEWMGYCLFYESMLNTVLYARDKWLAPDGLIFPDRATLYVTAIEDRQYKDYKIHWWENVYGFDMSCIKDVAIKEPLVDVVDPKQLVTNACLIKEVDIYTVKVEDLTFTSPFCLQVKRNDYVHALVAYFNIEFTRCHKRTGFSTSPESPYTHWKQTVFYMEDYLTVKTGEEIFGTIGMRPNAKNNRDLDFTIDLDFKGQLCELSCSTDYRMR
Chain of DNA (cytosine-5)-methyltransferase 1 (P26358 whole entry): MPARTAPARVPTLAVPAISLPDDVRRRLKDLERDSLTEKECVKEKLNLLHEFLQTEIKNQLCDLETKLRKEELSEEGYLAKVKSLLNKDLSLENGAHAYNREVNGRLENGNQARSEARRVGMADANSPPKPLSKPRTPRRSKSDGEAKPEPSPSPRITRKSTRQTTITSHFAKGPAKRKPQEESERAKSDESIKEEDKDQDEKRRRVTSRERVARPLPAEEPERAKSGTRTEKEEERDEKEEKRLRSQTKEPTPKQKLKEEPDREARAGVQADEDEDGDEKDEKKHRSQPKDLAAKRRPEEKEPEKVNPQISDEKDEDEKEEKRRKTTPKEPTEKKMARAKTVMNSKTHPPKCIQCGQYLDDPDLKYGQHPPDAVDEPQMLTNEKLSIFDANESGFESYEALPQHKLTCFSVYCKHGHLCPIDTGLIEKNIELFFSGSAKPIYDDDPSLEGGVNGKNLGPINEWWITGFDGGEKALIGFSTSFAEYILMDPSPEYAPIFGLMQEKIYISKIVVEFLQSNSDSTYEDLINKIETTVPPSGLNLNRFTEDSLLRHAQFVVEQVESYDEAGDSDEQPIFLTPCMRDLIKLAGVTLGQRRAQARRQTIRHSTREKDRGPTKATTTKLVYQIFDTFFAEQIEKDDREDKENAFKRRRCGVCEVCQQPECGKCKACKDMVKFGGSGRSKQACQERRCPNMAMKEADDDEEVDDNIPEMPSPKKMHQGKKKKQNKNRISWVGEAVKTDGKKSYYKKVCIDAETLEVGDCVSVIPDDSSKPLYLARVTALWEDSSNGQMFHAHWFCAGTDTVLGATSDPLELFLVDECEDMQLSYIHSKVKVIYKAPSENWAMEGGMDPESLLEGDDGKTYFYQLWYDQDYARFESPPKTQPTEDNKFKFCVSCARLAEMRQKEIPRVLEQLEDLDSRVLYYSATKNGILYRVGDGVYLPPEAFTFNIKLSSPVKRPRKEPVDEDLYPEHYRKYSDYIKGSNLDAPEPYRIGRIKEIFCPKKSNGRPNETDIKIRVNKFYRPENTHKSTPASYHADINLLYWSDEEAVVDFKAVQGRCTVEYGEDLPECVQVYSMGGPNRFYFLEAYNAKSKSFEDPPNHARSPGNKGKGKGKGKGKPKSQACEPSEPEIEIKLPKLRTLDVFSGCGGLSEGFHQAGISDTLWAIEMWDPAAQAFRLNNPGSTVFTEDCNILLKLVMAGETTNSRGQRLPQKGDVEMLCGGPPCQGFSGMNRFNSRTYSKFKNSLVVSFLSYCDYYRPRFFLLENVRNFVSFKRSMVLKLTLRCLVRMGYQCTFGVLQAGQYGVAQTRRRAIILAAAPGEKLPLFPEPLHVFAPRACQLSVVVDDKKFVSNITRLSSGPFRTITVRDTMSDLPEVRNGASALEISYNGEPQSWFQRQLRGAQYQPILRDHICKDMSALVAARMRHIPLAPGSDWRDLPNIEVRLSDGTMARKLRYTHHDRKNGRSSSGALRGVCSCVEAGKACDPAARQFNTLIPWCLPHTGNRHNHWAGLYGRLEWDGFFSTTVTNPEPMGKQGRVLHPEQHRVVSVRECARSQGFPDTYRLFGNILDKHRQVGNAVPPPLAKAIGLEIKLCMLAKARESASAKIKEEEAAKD
Chain of Polyamine deacetylase HDAC10 (Q969S8 whole entry): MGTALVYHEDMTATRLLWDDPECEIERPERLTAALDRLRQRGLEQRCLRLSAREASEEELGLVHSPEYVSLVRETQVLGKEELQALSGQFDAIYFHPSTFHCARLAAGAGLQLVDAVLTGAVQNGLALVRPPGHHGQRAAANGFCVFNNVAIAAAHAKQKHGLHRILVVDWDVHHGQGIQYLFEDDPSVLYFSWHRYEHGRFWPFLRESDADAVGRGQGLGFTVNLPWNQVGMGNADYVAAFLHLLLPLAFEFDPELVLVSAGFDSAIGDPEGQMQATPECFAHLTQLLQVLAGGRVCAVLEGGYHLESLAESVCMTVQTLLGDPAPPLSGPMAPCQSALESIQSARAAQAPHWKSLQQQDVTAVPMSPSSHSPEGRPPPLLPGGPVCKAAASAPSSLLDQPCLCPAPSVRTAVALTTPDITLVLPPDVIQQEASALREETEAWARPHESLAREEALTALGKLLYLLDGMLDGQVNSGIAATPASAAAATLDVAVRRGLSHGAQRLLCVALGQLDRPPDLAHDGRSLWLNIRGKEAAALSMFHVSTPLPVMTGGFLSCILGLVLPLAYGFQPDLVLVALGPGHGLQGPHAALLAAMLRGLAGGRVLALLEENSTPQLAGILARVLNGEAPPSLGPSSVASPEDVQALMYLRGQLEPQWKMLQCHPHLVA
Chain of Histone-lysine N-methyltransferase SUV39H1 (Homo sapiens) (O43463 whole entry): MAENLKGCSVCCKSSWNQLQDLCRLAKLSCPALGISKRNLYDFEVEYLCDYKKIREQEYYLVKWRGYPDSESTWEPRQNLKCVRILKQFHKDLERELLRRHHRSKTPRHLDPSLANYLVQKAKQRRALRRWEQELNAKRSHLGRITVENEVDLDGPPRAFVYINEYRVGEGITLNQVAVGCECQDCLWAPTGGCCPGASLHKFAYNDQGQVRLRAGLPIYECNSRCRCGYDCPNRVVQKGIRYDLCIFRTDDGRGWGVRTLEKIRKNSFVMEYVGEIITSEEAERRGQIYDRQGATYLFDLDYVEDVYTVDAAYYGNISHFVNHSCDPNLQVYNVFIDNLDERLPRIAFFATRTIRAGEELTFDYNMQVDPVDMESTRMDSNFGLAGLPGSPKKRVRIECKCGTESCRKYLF

## COc1ccc(CN2CCC(Nc3nc(Nc4ccc(NC(=O)CCCCCCC(=O)NO)cc4)nc4cc(OC)c(OC)cc34)CC2)cc1
[1]
  microsomal CLint at 3 µM: 52.2 µL/min/mg
[2]
  IC50: 14000 nM
Plasmodium falciparum [3]
  IC50: 145 nM
[4]
  IC50: 2690 nM
MDA-MB-231 [5]
  Activity: 15%
[6]
  inhibition: inactive
Homo sapiens [7]
  Ratio IC50: 485
Histone deacetylase 1
  IC50: 896 nM
MDA-MB-231 [8]
  Activity: 23%
[9]
  IC50: 2.57 nM
Homo sapiens [10]
  Ratio IC50: 13
Plasmodium falciparum [11]
  IC50: 508 nM
MDA-MB-231 [12]
  Activity: 11%
[13]
  microsomal CLint at 3 µM: 22.3 µL/min/mg
[14]
  EC50: 7500 nM
  inhibition: Dose-dependent effect
[15]
  inhibition: 19%
Homo sapiens [16]
  Ratio IC50: > 3000
[17]
  inhibition: 14%
MDA-MB-231 [18]
  Activity: 15%
[19]
  Activity: Non-Toxic
[20]
  EC50: 94000 nM
[21]
  selectivity ratio: 5
[22]
  half-life at 3 µM: 2.38 h
